According to patent publication US9968596B2 (Celgene Corporation, priority 2014, dated 2018):
Counter-ions that a name gives are not always drawn.

What follows are compounds tested on KG-1 cell line (assay: Effect of test compounds on KG-1 cell proliferation (Cell Titer-Glo viability, 72 hours)). Conditions: Homo sapiens, read-out: FCA Prolif Cell TiterGlo KG-1 72 h (IC50).
Type: cell-based
Method: The anti-proliferative activity of the test compound was evaluated on KG-1 cell line (American Type Culture Collection [ATCC]: catalogue number ATCC® CCL-246™) at 72 hours post-treatment. The seeding density for KG-1 was optimized to ensure assay linearity in 384-well plates.
Increasing concentrations of the test compound (0.5 nM to 10 μM) were spotted in a 10-point serial dilution fashion (3-fold dilution) in duplicate via an acoustic dispenser (EDC ATS-100) into an empty 384-well plate. The dimethyl sulfoxide (DMSO) concentration was kept constant for a final assay concentration of 0.1% DMSO. Prior to testing, KG-1 cells were grown in RPMI-1640 (Roswell Park Memorial Institute—1640) medium with 10% FBS (fetal bovine serum: HyClone) and expanded in culture flasks to provide sufficient amounts of starting material. Cells were then diluted to 5000 cells per well, in a 50 μL volume and added directly to the compound-spotted 384-well plates. Cells were allowed to grow for 72 hours in 5% CO2 at 37° C. At the time when exposure of cells to compound began (t0), initial viable cell number was assessed via Cell Titer-Glo® Luminescent Cell Viability Assay at a 1 vol:2 vol ratio according to manufacturer's instructions (Promega Corporation, Madison, Wis.) by quantifying the level of luminescence generated by adenosine-5′-triphosphate (ATP) present in viable cells. After 72 hours, cell viability of t-treated cells was assessed via Cell Titer-Glo® and read for luminescence.

SMILES	IC50
COc1ccc(C(F)(F)C(=O)NCc2ccc3c(c2)CN(C2CCC(=O)NC2=O)C3=O)cc1 (centres unmarked) [Example 3]	100 to 10000 nM
O=C1CCC(N2Cc3cc(CNC(=O)C(F)(F)c4ccc(F)cc4)ccc3C2=O)C(=O)N1 (centres unmarked) [Example 5]	10 to 50 nM
O=C1CCC(N2Cc3cc(CNC(=O)C(F)(F)c4ccccc4Cl)ccc3C2=O)C(=O)N1 (centres unmarked) [Example 8]	100 to 10000 nM
O=C1CCC(N2Cc3cc(CNC(=O)C(F)(F)c4c(F)cccc4F)ccc3C2=O)C(=O)N1 (centres unmarked) [Example 14]	100 to 10000 nM
Cc1ccccc1C(F)(F)C(=O)NCc1ccc2c(c1)CN(C1CCC(=O)NC1=O)C2=O (centres unmarked) [Example 15, N-((2-(2,6-dioxopiperidin-3-yl)-1-oxoisoindolin-5-yl)methyl)-2,2-difluoro-2-(o-tolyl)acetamide]	10 to 50 nM
CC(C)Oc1ccc(C(F)(F)C(=O)NCc2ccc3c(c2)CN(C2CCC(=O)NC2=O)C3=O)cc1 (centres unmarked) [Example 22]	10 to 50 nM
O=C1CCC(N2Cc3cc(CNC(=O)C(F)(F)c4ccc(F)c(F)c4)ccc3C2=O)C(=O)N1 (centres unmarked) [Example 23]	100 to 10000 nM
O=C1CCC(N2Cc3cc(CNC(=O)C(F)(F)c4cccc(F)c4)ccc3C2=O)C(=O)N1 (centres unmarked) [Example 24]	100 to 10000 nM
O=C1CCC(N2Cc3cc(CNC(=O)C(F)(F)C4(O)CCCC4)ccc3C2=O)C(=O)N1 (centres unmarked) [Example 66]	100 to 10000 nM
CC(C)(F)c1ccc(C(F)(F)C(=O)NCc2ccc3c(c2)CN(C2CCC(=O)NC2=O)C3=O)cc1 (centres unmarked) [Example 92]	50 to 100 nM
CC(C)(C)c1ccc(C(F)(F)C(=O)NCc2ccc3c(c2)CN(C2CCC(=O)NC2=O)C3=O)nc1 (centres unmarked) [Example 96, hydrochloride]	10 to 50 nM
O=C1CCC(N2Cc3cc(CNC(=O)C(F)(F)c4ccc(C5CC5)cn4)ccc3C2=O)C(=O)N1 (centres unmarked) [Example 97]	100 to 10000 nM
O=C1CCC(N2Cc3cc(CNC(=O)C(F)(F)c4ccc(F)cc4OC(F)(F)F)ccc3C2=O)C(=O)N1 (centres unmarked) [Example 100]	50 to 100 nM
CS(=O)(=O)c1cccc(C(F)(F)C(=O)NCc2ccc3c(c2)CN(C2CCC(=O)NC2=O)C3=O)c1 (centres unmarked) [Example 103]	100 to 10000 nM
Nc1ncc(C(F)(F)C(=O)NCc2ccc3c(c2)CN(C2CCC(=O)NC2=O)C3=O)cn1 (centres unmarked) [Example 104]	100 to 10000 nM
Cn1nc(C(F)(F)C(=O)NCc2ccc3c(c2)CN(C2CCC(=O)NC2=O)C3=O)ccc1=O (centres unmarked) [Example 107]	100 to 10000 nM
CN1CCN(c2cccc(C(F)(F)C(=O)NCc3ccc4c(c3)CN(C3CCC(=O)NC3=O)C4=O)c2)CC1 (centres unmarked) [Example 114, hydrochloride]	100 to 10000 nM
